Assay results taken from ChEMBL document CHEMBL3046120, “Synthesis and root growth-inhibitory activity of 2- and 3-(haloacetylamino)-3-(2-furyl)propanoic acids” (2003).

Test system: Brassica rapa subsp. oleifera
Experiment: Herbicidal activity against Brassica rapa subsp. oleifera seedling assessed as root growth inhibition at 1 x10 ' -4 M measured after 7 days
Type: functional
Details: 168 h, read-out: GI

| SMILES | inhibition of growth at 100 µM [%] |
| --- | --- |
| O=C(CCl)NC(Cc1ccco1)C(=O)O (racemic) | 51 |
| O=C(CF)NC(Cc1ccco1)C(=O)O (racemic) | 90 |
| CC(=O)NC(Cc1ccco1)C(=O)O (racemic) | 19 |
| NC(Cc1ccco1)C(=O)O (racemic) | 7 |
| O=C(O)CC(NC(=O)CCl)c1ccco1 (racemic) | 55 |
| O=C(O)CC(NC(=O)CF)c1ccco1 (racemic) | 43 |
| CC(=O)NC(CC(=O)O)c1ccco1 (racemic) | 22 |
| NC(CC(=O)O)c1ccco1 (racemic) | 16 |
| O=C(O)COc1ccc(Cl)cc1Cl [2,4-DICHLOROPHENOXYACETIC ACID] | 100 |
